According to ChEMBL document CHEMBL1134487, “Design, synthesis, and biological evaluation of analogues of the antitumor agent, 2-(4-[(7-chloro-2-quinoxalinyl)oxy]phenoxy)propionic acid (XK469)” (2001):
Active and inactive are the calls of the source. The rule behind the calls is not given here.

What was measured:
[1] = system: Mus musculus; test: In vivo activity tested against C3H mice bearing panc-03 murine tumor measured as body weight loss at 1320 mg/kg (po); format: functional
[2] = system: Mus musculus; test: In vivo activity tested against C3H mice bearing panc-03 murine tumor measured as % treated/control calculated at 1320 mg/kg (po); format: functional
[3] = system: Mus musculus; test: In vivo activity tested against C3H mice bearing panc-03 murine tumor measured as log Kill value was based on tumors that grew at 1320 mg/kg (po); format: functional, organism-based; set-up: dose 1320 mg/kg
[4] = system: Mus musculus; test: In vivo activity tested against C3H mice bearing panc-03 murine tumor, measured as cures at 1085 mg/kg (po); 3/5 cures; format: functional
[5] = system: Mus musculus; test: In vivo activity tested against C3H mice bearing panc-03 murine tumor measured as log Kill value was based on tumors that grew at 1085 mg/kg (po); format: functional, organism-based; set-up: dose 1085 mg/kg
[6] = system: Mus musculus; test: In vivo activity tested against C3H mice bearing panc-03 murine tumor measured as activity rating at 1085 mg/kg (po); format: functional
[7] = system: Mus musculus; test: In vivo activity tested against C3H mice bearing panc-03 murine tumor measured as % treated/control calculated at 1085 mg/kg (po); format: functional
[8] = system: Mus musculus; test: In vivo activity tested against C3H mice bearing panc-03 murine tumor measured as body weight loss at 1085 mg/kg (po); format: functional
[9] = system: Mus musculus; test: In vivo activity tested against C3H mice bearing panc-03 murine tumor measured as % treated/control calculated at 1010 mg/kg (po); format: functional
[10] = system: Mus musculus; test: In vivo activity tested against C3H mice bearing panc-03 murine tumor measured as body weight loss at 561 mg/kg (po); format: functional
[11] = system: Mus musculus; test: In vivo activity tested against C3H mice bearing panc-03 murine tumor measured as log Kill value was based on tumors that grew at 1010 mg/kg (po); format: functional, organism-based; set-up: dose 1010 mg/kg
[12] = system: Mus musculus; test: In vivo activity tested against C3H mice bearing panc-03 murine tumor measured as log Kill value was based on tumors that grew at 561 mg/kg (po); None; format: functional, organism-based; set-up: dose 561 mg/kg
[13] = system: Mus musculus; test: In vivo activity tested against C3H mice bearing panc-03 murine tumor measured as % treated/control calculated at 561 mg/kg (po); format: functional
[14] = system: Mus musculus; test: In vivo activity tested against C3H mice bearing panc-03 murine tumor measured as body weight loss at 1010 mg/kg (po); format: functional
[15] = system: Mus musculus; test: In vivo activity tested against C3H mice bearing panc-03 murine tumor measured as activity rating at 561 mg/kg (po); format: functional
[16] = system: Mus musculus; test: In vivo activity tested against C3H mice bearing mammary adenocarcinoma -17/ADR tumor measured as log Kill value was based on tumors that grew at 1250 mg/kg (po); format: functional, organism-based; set-up: dose 1250 mg/kg
[17] = system: Mus musculus; test: In vivo activity tested against C3H mice bearing mammary adenocarcinoma -17/ADR tumor measured as log Kill value was based on tumors that grew at 750 mg/kg (po); format: functional, organism-based; set-up: dose 750 mg/kg
[18] = system: Mus musculus; test: In vivo activity tested against C3H mice bearing mammary adenocarcinoma -17/ADR tumor measured as % treated/control calculated at 1250 mg/kg (po); format: functional
[19] = system: Mus musculus; test: In vivo activity tested against C3H mice bearing mammary adenocarcinoma -17/ADR tumor measured as % treated/control calculated at 750 mg/kg (po); format: functional
[20] = system: Mus musculus; test: In vivo activity tested against C3H mice bearing mammary adenocarcinoma -17/ADR tumor measured as body weight loss at 750 mg/kg (po); format: functional
[21] = system: Mus musculus; test: In vivo activity tested against C3H mice bearing mammary adenocarcinoma -17/ADR tumor measured as body weight loss at 1250 mg/kg (po); format: functional
[22] = system: Mus musculus; test: In vivo activity tested against C3H mice bearing panc-03 murine tumor measured as log Kill value was based on tumors that grew at 144 mg/kg (po); format: functional, organism-based; set-up: dose 144 mg/kg
[23] = system: Mus musculus; test: In vivo activity tested against C3H mice bearing panc-03 murine tumor measured as % treated/control calculated at 144 mg/kg (po); format: functional
[24] = system: Mus musculus; test: In vivo activity tested against C3H mice bearing mammary adenocarcinoma -17/ADR tumor measured as log Kill value was based on tumors that grew at 216 mg/kg (po); format: functional, organism-based; set-up: dose 216 mg/kg
[25] = system: Mus musculus; test: In vivo activity tested against C3H mice bearing mammary adenocarcinoma -17/ADR tumor measured as % treated/control calculated at 216 mg/kg (po); format: functional
[26] = system: Mus musculus; test: In vivo activity tested against C3H mice bearing panc-03 murine tumor measured as body weight loss at 144 mg/kg (po); format: functional
[27] = system: Mus musculus; test: In vivo activity tested against C3H mice bearing mammary adenocarcinoma -17/ADR tumor measured as body weight loss at 216 mg/kg (po); format: functional
[28] = system: Mus musculus; test: In vivo activity tested against C3H mice bearing colon adenocarcinoma -38(colon-38) tumor measured as % treated/control calculated at 195 mg/kg (po); format: functional
[29] = system: Mus musculus; test: In vivo activity tested against C3H mice bearing mammary adenocarcinoma -16c/ADR tumor measured as % treated/control calculated at 582 mg/kg (po); format: functional
[30] = system: Mus musculus; test: In vivo activity tested against C3H mice bearing mammary adenocarcinoma -17/ADR tumor measured as body weight loss at 679 mg/kg (po); format: functional
[31] = system: Mus musculus; test: In vivo activity tested against C3H mice bearing mammary adenocarcinoma -16c/ADR tumor measured as % treated/control calculated at 455 mg/kg (po); format: functional
[32] = system: Mus musculus; test: In vivo activity tested against C3H mice bearing mammary adenocarcinoma -16c/ADR tumor measured as log Kill value was based on tumors that grew at 582 mg/kg (po); format: functional, organism-based; set-up: dose 582 mg/kg
[33] = system: Mus musculus; test: In vivo activity tested against C3H mice bearing mammary adenocarcinoma -17/ADR tumor measured as log Kill value was based on tumors that grew at 679 mg/kg (po); format: functional, organism-based; set-up: dose 679 mg/kg
[34] = system: Mus musculus; test: In vivo activity tested against C3H mice bearing mammary adenocarcinoma -16c/ADR tumor measured as log Kill value was based on tumors that grew at 455 mg/kg (po); format: functional, organism-based; set-up: dose 455 mg/kg
[35] = system: Mus musculus; test: In vivo activity tested against C3H mice bearing mammary adenocarcinoma -17/ADR tumor measured as % treated/control calculated at 679 mg/kg (po); format: functional
[36] = system: Mus musculus; test: In vivo activity tested against C3H mice bearing colon adenocarcinoma -38(colon-38) tumor measured as log Kill value was based on tumors that grew at 585 mg/kg (po); format: functional, organism-based; set-up: dose 585 mg/kg
[37] = system: Mus musculus; test: In vivo activity tested against C3H mice bearing mammary adenocarcinoma -16c/ADR tumor measured as body weight loss at 582 mg/kg (po); format: functional
[38] = system: Mus musculus; test: In vivo activity tested against C3H mice bearing mammary adenocarcinoma -17/ADR tumor measured as body weight loss at 407.4 mg/kg (po); format: functional
[39] = system: Mus musculus; test: In vivo activity tested against C3H mice bearing mammary adenocarcinoma -17/ADR tumor measured as log Kill value was based on tumors that grew at 407.4 mg/kg (po); format: functional, organism-based; set-up: dose 407.4 mg/kg
[40] = system: Mus musculus; test: In vivo activity tested against C3H mice bearing mammary adenocarcinoma -17/ADR tumor measured as % treated/control calculated at 407.4 mg/kg (po); format: functional
[41] = system: Mus musculus; test: In vivo activity tested against C3H mice bearing mammary adenocarcinoma -16c/ADR tumor measured as body weight loss at 455 mg/kg (po); format: functional
[42] = system: Mus musculus; test: In vivo activity tested against C3H mice bearing colon adenocarcinoma -38(colon-38) tumor measured as body weight loss at 195 mg/kg (po); format: functional
[43] = system: Mus musculus; test: In vivo activity tested against C3H mice bearing colon adenocarcinoma -38(colon-38) tumor measured as body weight loss at 585 mg/kg (po); format: functional
[44] = system: Mus musculus; test: In vivo activity tested against C3H mice bearing colon adenocarcinoma -38(colon-38) tumor measured as % treated/control calculated at 585 mg/kg (po); format: functional
[45] = system: Mus musculus; test: In vivo activity tested against C3H mice bearing colon adenocarcinoma -38(colon-38) tumor measured as log Kill value was based on tumors that grew at 195 mg/kg (po); format: functional, organism-based; set-up: dose 195 mg/kg

Which Body weight loss [1] does the source give for `CC(Oc1ccc(Oc2cnc3ccc(Cl)cc3n2)cc1)C(N)=O` (stereo not given) here?
Its Body weight loss is -3.6%.

And the T/C [2]?
The T/C was 7.3.

What about the Log kill [3] of the same compound?
Its Log kill is 1.9.

For `CC(Oc1ccc(Oc2cnc3ccc(F)cc3n2)cc1)C(=O)O` (stereo not given), which Cures [4] is on record?
Its Cures is 3.

And the Log kill [5]?
Its Log kill is 3.7.

And the Activity rating [6]?
The Activity rating was over 2.8.

What about the T/C [7] of the same compound?
Its T/C is 0%.

What about the Body weight loss [8] of the same compound?
The Body weight loss was -13%.

Which T/C [9] does the source give for `CC(Oc1ccc(Oc2cnc3c(Cl)cccc3n2)cc1)C(=O)O` (stereo not given) here?
The T/C was 59%.

And the Body weight loss [10]?
Its Body weight loss is 2%.

What about the Log kill [11] of the same compound?
Its Log kill is 0.27.

What about the Log kill [12] of the same compound?
Its Log kill is “inactive”.

And the T/C [13]?
The T/C was over 100%.

And the Body weight loss [14]?
Its Body weight loss is -2%.

And the Activity rating [15]?
Its Activity rating is under 0.7.

Which results are given for `Cc1ccc2ncc(Oc3ccc(OC(C)C(=O)O)cc3)nc2c1` (stereo not given)?
Log kill [16]: 0.63; Log kill [17]: 0.38; T/C [18]: 21%; T/C [19]: 47%; Body weight loss [20]: 4.3%; Body weight loss [21]: 7.1%

What does the source list for `CC(Oc1ccc(Oc2cnc3ccc(N=[N+]=[N-])cc3n2)cc1)C(=O)O` (stereo not given)?
Log kill [22]: 2; T/C [23]: 17%; Log kill [24]: 1; T/C [25]: 30%; Body weight loss [26]: 2.9%; Body weight loss [27]: 4.3%

`COc1ccc2ncc(Oc3ccc(OC(C)C(=O)O)cc3)nc2c1` (stereo not given) was tested. Which T/C [28] did it give?
The T/C was 90%.

And the T/C [29]?
The T/C was 0%.

What about the Body weight loss [30] of the same compound?
Its Body weight loss is -4.6%.

What about the T/C [31] of the same compound?
The T/C was 8%.

What about the Log kill [32] of the same compound?
Its Log kill is 2.7.

And the Log kill [33]?
Its Log kill is 3.

And the Log kill [34]?
Its Log kill is 2.1.

What about the T/C [35] of the same compound?
The T/C was 4.6%.

And the Log kill [36]?
The Log kill was 1.73.

What about the Body weight loss [37] of the same compound?
The Body weight loss was -13.6%.

What about the Body weight loss [38] of the same compound?
Its Body weight loss is 0%.

And the Log kill [39]?
The Log kill was 1.7.

What about the T/C [40] of the same compound?
Its T/C is 6.4%.

And the Body weight loss [41]?
The Body weight loss was -1.2%.

And the Body weight loss [42]?
Its Body weight loss is 0%.

And the Body weight loss [43]?
The Body weight loss was 0%.

What about the T/C [44] of the same compound?
Its T/C is 23%.

And the Log kill [45]?
The Log kill was 0.12.
